Where “and” joins values, the source holds several entries; their conditions need not be identical. Identical values can stand only once.

Experiment [1] relates to ApoE/LDLR−/− mice. In words: MRI-based assessment of NO-dependent vasodilatation in BCA and LCA after acetylcholine (Example 2). It is filed as in vivo. As to conditions: two months, 25 min after Ach. How it is done: The effects of low-doses (0.03 mg/kg b.w./day) as well as high-doses (10 mg/kg b.w./day) of vitamin K2 (MK-7), on endothelial function in mice with pre-established atherosclerosis was assessed. The mice were treated with K2 (MK-7) for two months and endothelial function was analyzed in vivo based on functional study (MRI based assessment of NO-dependent vasodilation) as well as by biochemical analysis (plasma nitrate and nitrite concentration). In addition, a comprehensive qualitative and quantitative histological analysis of the effects of K2 (MK-7) on vascular wall structure and atherosclerosis plaque composition was performed.
Endpoint assays: Magnetic resonance imaging (MRI)-based assessment of nitric oxide (NO)-dependent vasodilatation in brachiocephalic (BCA) and left common carotid artery (LCA) after acetylcholine (Ach) administration—by MRI 9.4T scanner, total time of measurements: 114 h (1.5 h per animal), acetylcholine (Ach, 16.6 mg/kg b.w.)
Studies were performed on 4-month old female ApoE/LDLR−/− mice, the model initially described by Ishibashi S, Herz J, Maeda N, Goldstein J, Brown M. The two-receptor model of lipoprotein clearance: tests of the hypothesis in “knockout” mice lacking the low density lipoprotein receptor, apolipoprotein E, or both proteins. Proc Natl Acad Sci USA 1994; 10:4431-5., and extensively characterized in previous studies, [see Kostogrys RB, Franczyk-Zarow M, Gasior-Glogowska M, Kus E, Jasztal A, Wrobel T P, et al. Anti-atherosclerotic effects of pravastatin in brachiocephalic artery in comparison with en face aorta and aortic roots in ApoE/LDLR−/− mice. Pharmacol Reports 2017; 69:112-8. doi:10.1016/j.pharep.2016.09.014; Tyrankiewicz U, Skorka T, Orzylowska A, Jablonska M, Jasinski K, Jasztal A, et al. Comprehensive MRI for the detection of subtle alterations in diastolic cardiac function in apoE/LDLR −/− mice with advanced atherosclerosis. […] End-diastolic volumes of BCA and LCA were analyzed using ImageJ software (1.46r NIH Bethesda, Md., USA) and scripts written in Matlab (MathWorks, Natick, Mass., USA) (FIG. 1A).

Experiment [2] concerns ApoE/LDLR−/− mice. In words: Histological assessment of area and composition of atherosclerotic plaque in BCA, older mice (Example 3). As to conditions: eight weeks. It is filed as in vivo. An excerpt:
For the determination of atherosclerotic plaque area and composition isolated brachiocephalic artery (BCA) was dissected, fixed in 4% buffered formalin, and embedded in paraffin. 5 μm-thick serial sections of BCA were collected from the proximal to distal part of the artery. Staining with Unna's orcein combined with Martius, Scarlet and Blue trichrome (OMSB) was applied on every tenth section (50 μm interval between each section) for quantitative analysis of atherosclerotic plaques. The areas of particular components of atherosclerotic plaque as well as artery lumen and wall were determined after Columbus-based software processing (FIG. 9) using specially-designed algorithm as described in Gajda M, Jasztal A, Banasik T, Jasek-Gajda E, Chlopicki S. Combined orcein and martius scarlet blue (OMSB) staining for qualitative and quantitative analyses of atherosclerotic plaques in brachiocephalic arteries in apoE/LDLR−/− mice. Histochem Cell Biot 2017. doi:10.1007/s00418-017-1538-8. The parameters analyzed include vessel wall area (VWA), internal vessel area (IVA=plaque area+lumen area), plaque area (expressed as percent of internal wall area: plaque/IWA), and lumen area (expressed as percent of internal wall area: lumen/IWA).

Take `CC(C)=CCC/C(C)=C/CC/C(C)=C/CC/C(C)=C/CC/C(C)=C/CC/C(C)=C/CC/C(C)=C/CC1=C(C)C(=O)c2ccccc2C1=O` [MK-7, menaquinone-7]: in experiment [1] (high dose 10 mg/kg b.w./day), the “vessel volume change of BCA after Ach injection” value was 3.12% and the “vessel volume change of LCA after Ach injection” value worked out at 4.45%. Further, in experiment [1] (low dose 0.03 mg/kg b.w./day, listed as vitamin MK-7, 0.03 mg/kg/day), the “vessel volume change of LCA after Ach injection” value is ~−3% and −3.92%. In experiment [2] (low (0.03 mg/kg b.w./day) or high dose (10 mg/kg b.w./day)), the “plaque size compared with non-treated mice” value is “not different”. In addition, the “decrease in vessel wall area (VWA) of BCA” value in experiment [2] (low and high dose, 24-week-old mice) is reported as “about 5%”. Moreover, in experiment [2] (low or high dose), the “plaque and lumen area expressed as percent of IWA” value is “did not change”. The “internal wall area (IWA)” value in experiment [2] (lower dose) is listed as “decreased only in the middle part of the vessel”.

These data come from patent US20220160651A1, “RAPIDLY IMPROVING ENDOTHELIAL FUNCTION, REDUCING ARTERIAL STIFFNESS AND REVERSING CALCIFICATION OF BLOOD VESSELS BY ADMINISTERING VITAMIN K” (KAYDENCE PHARMA AS, priority 2019, published 2022).
